Experiments:
[1] = tested on: MBP-SUFU-FL, mutation of Tyr147; test: Microscale thermophoresis, MBP-SUFU-FL mutated at Tyr147; assay type: binding, human; settings: mutation of Tyr147 in MBP-SUFU-FL, data not shown
Procedure: (§1) A 5-FAM-labelled peptide (FAM-GLI1p) comprising residues 115–131 of GLI1 (Supplementary Table S1b) was synthesized by Pepceuticals Ltd. A titration series of each recombinant protein was prepared by serial 1:1 dilutions in MST buffer (50 mM Tris–HCl pH 7.6, 150 mM NaCl, 10 mM MgCl2, 0.05% Tween-20) and mixed in a 1:1 ratio with FAM-GLI1p to give final concentrations of 50 nM FAM-GLI1p with MBP-SUFU constructs in the ranges 14.2–29 070 and 54–110 500 nM. Reactions were aspirated into glass capillaries and the thermophoretic movement of FAM-GLI1p was monitored using a Monolith NT.115 instrument (NanoTemper Technologies; Wienken et al., 2010[▶]), with a laser on for 30 s and off for 5 s and a laser power/voltage of 20% for MBP-SUFU-FL and the MBP-SUFU-FL mutants, 40% for MBP-SUFU-Δ and 80% for MBP-SUFU-SH. Fluorescence was measured before laser heating (F Cold) and after 30 s of laser-on time (F Hot). The normalized fluorescence F Hot/F Cold reflects the concentration ratio of labelled molecules. F Hot/F Cold was plotted directly and multiplied by a factor of […], yielding a relative change in fluorescence per thousand. K d was calculated from three independent thermophoresis measurements using NanoTemper software (NanoTemper Technologies). […]

[2] = tested on: MBP-SUFU-FL, mutation of Asp159; test: Microscale thermophoresis, MBP-SUFU-FL mutated at Asp159; assay type: binding, human; settings: mutation of Asp159 in MBP-SUFU-FL, data not shown
Procedure: as §1

[3] = tested on: MBP-SUFU-FL, mutation of Glu376; test: Microscale thermophoresis, MBP-SUFU-FL mutated at Glu376; assay type: binding, human; settings: mutation of Glu376 in MBP-SUFU-FL, data not shown
Procedure: as §1

MBP-SUFU-FL = molecular target: T1, MBP-SUFU-FL (Homo sapiens, UniProt Q9UMX1); test: Thermal stability assay with peptide, MBP-SUFU-FL; assay type: binding; settings: 44 µM peptide, 2.2 µM protein, SYPRO Orange, 50 mM Na HEPES pH 7.0, 50 mM NaCl, 5 mM β-mercaptoethanol; triplicate
T1 construct: containing residues 32–483 of human SUFU and a C-terminal hexahistidine tag; hexahistidine tag (C); made in house; host or cells: Escherichia coli JM109 (DE3)
Procedure: Recombinant MBP-SUFU proteins were diluted to 2.6 μM in 50 mM Na HEPES pH 7.0, 50 mM NaCl, 5 mM β-mercaptoethanol; the peptides GLI1p and GLI1p-SH (Supplementary Table S1b), synthesized by Dr W. Mawby (University of Bristol), were dissolved in the same buffer. Proteins were spun at 14 000g for 20 min at 4°C before adding SYPRO Orange (Molecular Probes) to a final concentration of 6×. Reaction volumes of 25 μl were prepared in 96-well PCR plates with 2.2 μM protein/SYPRO Orange solution and, where applicable, 44 μM peptide. Plates were sealed with optical tape, heated from 20 to 90°C in 12 s 0.2°C steps in an iCycler and fluorescence was detected using an excitation wavelength of 470 nm and an emission wavelength of 570 nm. To determine whether the IDR affects the GLI-binding properties of SUFU, we used a human GLI1-derived peptide (GLI1p; residues 115-131; Supplementary Table S1b) containing the highly conserved SYGH motif important for interaction with SUFU (Dunaeva et al., 2003[▶]) in a thermal stability assay with MBP-SUFU-FL and MBP-SUFU-Δ (Fig. 4 ▶ a). The addition of GLI1p stabilized both proteins: T m for MBP-SUFU-FL was shifted by 4°C and that for MBP-SUFU-Δ was shifted by 3.6°C. […] The GLI1 dose dependency of this effect was confirmed in a separate experiment with increasing GLI1p concentrations (Supplementary Fig. […]).

T1 sequence (Q9UMX1 32-483, other chains not shown): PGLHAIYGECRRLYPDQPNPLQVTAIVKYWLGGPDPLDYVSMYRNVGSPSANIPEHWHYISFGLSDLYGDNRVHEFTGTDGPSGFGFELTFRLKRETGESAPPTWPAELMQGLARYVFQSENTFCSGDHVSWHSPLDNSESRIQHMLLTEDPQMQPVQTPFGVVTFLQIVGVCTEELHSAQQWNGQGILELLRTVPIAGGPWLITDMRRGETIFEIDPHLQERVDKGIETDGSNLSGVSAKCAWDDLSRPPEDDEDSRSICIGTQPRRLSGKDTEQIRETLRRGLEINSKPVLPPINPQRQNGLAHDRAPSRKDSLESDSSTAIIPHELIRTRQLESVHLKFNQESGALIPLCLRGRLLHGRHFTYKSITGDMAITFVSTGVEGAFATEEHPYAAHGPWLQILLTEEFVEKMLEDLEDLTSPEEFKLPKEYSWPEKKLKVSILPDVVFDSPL

detectable binding [1]: abolished detectable binding
detectable binding [2]: abolished detectable binding
detectable binding [3]: abolished detectable binding
Tm shift (MBP-SUFU-FL): 4 °C
Substance: GLI1p: human GLI1-derived peptide; residues 115–131, containing the highly conserved SYGH motif (TSPGGSYGHLSIGTMSP)
